Results reported in article PMC6110851, “An Optimized MicroPET Imaging Method for the Distribution and Synergies of Natural Products” (Frontiers in Pharmacology, 2018).
Like-named read-outs stand apart in the source and are kept apart here.

Experiment: MicroPET distribution of [^18F]-GA after PG polysaccharides intervention
Format: in vivo, mice
Conditions: for tissue uptake at 1 h / tissue uptake at 168 h: male, Kunming, mouse, lungs, po; for tissue uptake at 1 h: PG polysaccharides orally 1 h before [^18F]-GA, read-out: %ID/g of [^18F]-GA in the lungs, OA; for tissue uptake at 168 h: PG polysaccharides orally for 7 days, read-out: %ID/g of [^18F]-GA in the lungs, LA
Experimental: The mice were grouped by weight and housed in cages of the climate control room (25°C), with a photoperiod 12:12-h. During feeding, mice were free to access food and water. Mice were fasted for 24 h before the experiment. The mice were anesthetized with 4% isoflurane while preparing for scanning ([Constantinescu et al., 2013b]; [Cui et al., 2017]). Eighteen healthy male Kunming mice, weighing 20 ± 2 g, were divided into three groups, which were control group, once-administered (OA) group and long-term administration (LA) group. In the OA group, 1 h before the administration of [^18F]-GA, the mice were orally treated with PG polysaccharides. In the LA group, the mice were orally given the PG polysaccharides for 7 days, but not before the administration of [^18F]-GA.
Rice received a tail vein injection (8.67 ± 2.14 MBq/μg) of [^18F]-GA and placed in the scanner bed and mouse-imaging room immediately ([Constantinescu et al., 2013b]; [O’Doherty et al., 2017]). Firstly, 2 h PET scanning was performed using an Inveon-dedicated PET scanner. The average delay between injection and starting of PET scanning was 3.5 min. Rice were maintained stable under 4% isoflurane anesthesia throughout scanning. The PET list-mode data were dynamically classified into 23 3D sinograms of span and three ring difference. After Fourier recombination, the data were reconstructed using a 2D ordered-subset expectation maximization algorithm. Random events were excluded before reconstruction. The response of detector is normalized using a component-based approach. All dynamic images were corrected for radioactive decay automatically. The PET images were reconstructed by a cone beam algorithm into 480 × 480 × 632 image arrays. After the reconstruction, images were spatially transformed to match the PET images ([Constantinescu et al., 2013a],[b]).
The reconstruction of the image was performed using the PMOD software (PMOD Technologies). The 3D volumes of interest (VOIs) were drawn manually of the following organs: brain, heart, liver, lungs, kidneys, cortical bone, and gallbladder. The organs were carefully identified and VOIs were drawn as irregular contours on high-resolution PET images obtained from each mouse ([Constantinescu et al., 2013b]; [Garg et al., 2017]). The size of each VOI was less than the actual size of each organ to minimize the effects of PET on adjacent organ spills. The VOIs drawing was verified by a second operator. The VOIs of cortical bone were generated by first using PET image to depict the entire femur bone ([Constantinescu et al., 2013b]). The VOI was transferred to a dynamic PET image and the mean time-activity curve (TAC) of the decay correction was extracted for each target organ ([Constantinescu et al., 2013b]).

Question: For `CC1(C)[C@@H](O)CC[C@]2(C)[C@H]3C(=O)C=C4[C@@H]5C[C@@](C)(C(=O)NCCCC[18F])CC[C@]5(C)CC[C@@]4(C)[C@]3(C)CC[C@@H]12` [[^18F]-GA, [^18F]-Glycyrrhetinic acid], which tissue uptake at 1 h (mice, Time(s) 1140) is on record?
Answer: Its tissue uptake at 1 h is 4.25 %ID/g.

Question: And the tissue uptake at 1 h (mice, Time(s) 1350)?
Answer: The tissue uptake at 1 h was 4.17 %ID/g.

Question: And the tissue uptake at 1 h (mice, Time(s) 1650)?
Answer: The tissue uptake at 1 h was 4.06 %ID/g.

Question: What about the tissue uptake at 1 h (mice, Time(s) 1950) of the same molecule?
Answer: The tissue uptake at 1 h was 3.95 %ID/g.

Question: What about the tissue uptake at 1 h (mice, Time(s) 2250) of the same molecule?
Answer: The tissue uptake at 1 h was 3.79 %ID/g.

Question: What about the tissue uptake at 1 h (mice, Time(s) 2700) of the same molecule?
Answer: The tissue uptake at 1 h was 3.54 %ID/g.

Question: What about the tissue uptake at 1 h (mice, Time(s) 3300) of the same molecule?
Answer: Its tissue uptake at 1 h is 3.17 %ID/g.

Question: What about the tissue uptake at 1 h (mice, Time(s) 3900) of the same molecule?
Answer: The tissue uptake at 1 h was 3.06 %ID/g.

Question: What about the tissue uptake at 1 h (mice, Time(s) 4500) of the same molecule?
Answer: Its tissue uptake at 1 h is 3.07 %ID/g.

Question: What about the tissue uptake at 1 h (mice, Time(s) 5100) of the same molecule?
Answer: Its tissue uptake at 1 h is 2.96 %ID/g.

Question: And the tissue uptake at 1 h (mice, Time(s) 5700)?
Answer: The tissue uptake at 1 h was 2.88 %ID/g.

Question: What about the tissue uptake at 1 h (mice, Time(s) 6300) of the same molecule?
Answer: The tissue uptake at 1 h was 2.95 %ID/g.

Question: And the tissue uptake at 1 h (mice, Time(s) 6900)?
Answer: Its tissue uptake at 1 h is 2.85 %ID/g.

Question: And the tissue uptake at 168 h (mice, Time(s) 60)?
Answer: The tissue uptake at 168 h was 8.74 %ID/g.

Question: And the tissue uptake at 168 h (mice, Time(s) 180)?
Answer: Its tissue uptake at 168 h is 4.38 %ID/g.

Question: What about the tissue uptake at 168 h (mice, Time(s) 300) of the same molecule?
Answer: The tissue uptake at 168 h was 3.63 %ID/g.

Question: What about the tissue uptake at 168 h (mice, Time(s) 420) of the same molecule?
Answer: The tissue uptake at 168 h was 3.15 %ID/g.

Question: And the tissue uptake at 168 h (mice, Time(s) 540)?
Answer: The tissue uptake at 168 h was 2.85 %ID/g.

Question: What about the tissue uptake at 168 h (mice, Time(s) 660) of the same molecule?
Answer: The tissue uptake at 168 h was 2.9 %ID/g.

Question: What about the tissue uptake at 168 h (mice, Time(s) 780) of the same molecule?
Answer: Its tissue uptake at 168 h is 2.51 %ID/g.

Question: What about the tissue uptake at 168 h (mice, Time(s) 900) of the same molecule?
Answer: The tissue uptake at 168 h was 2.49 %ID/g.

Question: What about the tissue uptake at 168 h (mice, Time(s) 1020) of the same molecule?
Answer: Its tissue uptake at 168 h is 2.35 %ID/g.

Question: What about the tissue uptake at 168 h (mice, Time(s) 1140) of the same molecule?
Answer: The tissue uptake at 168 h was 2.19 %ID/g.

Question: And the tissue uptake at 168 h (mice, Time(s) 1350)?
Answer: Its tissue uptake at 168 h is 2.16 %ID/g.

Question: What about the tissue uptake at 168 h (mice, Time(s) 1650) of the same molecule?
Answer: Its tissue uptake at 168 h is 2.06 %ID/g.

Question: And the tissue uptake at 168 h (mice, Time(s) 1950)?
Answer: Its tissue uptake at 168 h is 1.89 %ID/g.

Question: And the tissue uptake at 168 h (mice, Time(s) 2250)?
Answer: The tissue uptake at 168 h was 1.78 %ID/g.

Question: And the tissue uptake at 168 h (mice, Time(s) 2700)?
Answer: The tissue uptake at 168 h was 1.7 %ID/g.

Question: And the tissue uptake at 168 h (mice, Time(s) 3300)?
Answer: Its tissue uptake at 168 h is 1.48 %ID/g.

Question: What about the tissue uptake at 168 h (mice, Time(s) 3900) of the same molecule?
Answer: Its tissue uptake at 168 h is 1.33 %ID/g.

Question: And the tissue uptake at 168 h (mice, Time(s) 4500)?
Answer: The tissue uptake at 168 h was 1.24 %ID/g.

Question: And the tissue uptake at 168 h (mice, Time(s) 5100)?
Answer: The tissue uptake at 168 h was 1.18 %ID/g.

Question: And the tissue uptake at 168 h (mice, Time(s) 5700)?
Answer: The tissue uptake at 168 h was 1.06 %ID/g.

Question: And the tissue uptake at 168 h (mice, Time(s) 6300)?
Answer: Its tissue uptake at 168 h is 1.11 %ID/g.

Question: What about the tissue uptake at 168 h (mice, Time(s) 6900) of the same molecule?
Answer: The tissue uptake at 168 h was 1.05 %ID/g.

Question: And the “%ID/g of [^18F]-GA in the lungs, Con” value (mice, control group, Time(s) 660)?
Answer: The value was 2.45 %ID/g.

Question: And the “change of [^18F]-GA concentration in other organs after PG polysaccharides intervention” value (organs other than lung)?
Answer: The value was “no significant change in other organs”.
